Measurements from ChEMBL document CHEMBL1201862, “PubChem BioAssay data set” (2004).
The source made the active and inactive calls.

Columns and labels:
[1] = target: T1, Mannose-6-phosphate isomerase (Homo sapiens, UniProt P34949); assay: human PMI inhibitors, high substrate, primary screen, biochemical, fluorescence intensity, high mannose 6-phosphate (AID 1220)
T1 sequence (P34949 whole entry): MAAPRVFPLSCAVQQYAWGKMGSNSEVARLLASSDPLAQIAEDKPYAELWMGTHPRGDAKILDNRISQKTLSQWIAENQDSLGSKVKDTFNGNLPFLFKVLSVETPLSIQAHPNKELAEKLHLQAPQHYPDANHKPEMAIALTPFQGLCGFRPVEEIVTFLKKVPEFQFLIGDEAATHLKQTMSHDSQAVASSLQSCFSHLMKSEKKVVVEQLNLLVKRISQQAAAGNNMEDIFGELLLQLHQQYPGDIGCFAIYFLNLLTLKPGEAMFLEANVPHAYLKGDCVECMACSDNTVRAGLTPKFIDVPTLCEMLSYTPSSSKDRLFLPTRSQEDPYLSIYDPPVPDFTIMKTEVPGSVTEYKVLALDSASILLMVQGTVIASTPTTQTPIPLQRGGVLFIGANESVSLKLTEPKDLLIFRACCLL

[2] = target: T2, Heat shock factor protein 1 (Mus musculus, UniProt P38532); assay: HSF1 potentiators in luciferase reporter cells, confirmation, cell-based, NIH3T3, luminescence, dose retest (AID 435004); format: functional;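 note: stress induced by proteasome inhibitor MG132 added 30 min after compound; luciferase reporter driven by HSF1 response element in NIH3T3 cells; actives raise luminescence as potentiators of the MG132 stress response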
T2 sequence (P38532 whole entry): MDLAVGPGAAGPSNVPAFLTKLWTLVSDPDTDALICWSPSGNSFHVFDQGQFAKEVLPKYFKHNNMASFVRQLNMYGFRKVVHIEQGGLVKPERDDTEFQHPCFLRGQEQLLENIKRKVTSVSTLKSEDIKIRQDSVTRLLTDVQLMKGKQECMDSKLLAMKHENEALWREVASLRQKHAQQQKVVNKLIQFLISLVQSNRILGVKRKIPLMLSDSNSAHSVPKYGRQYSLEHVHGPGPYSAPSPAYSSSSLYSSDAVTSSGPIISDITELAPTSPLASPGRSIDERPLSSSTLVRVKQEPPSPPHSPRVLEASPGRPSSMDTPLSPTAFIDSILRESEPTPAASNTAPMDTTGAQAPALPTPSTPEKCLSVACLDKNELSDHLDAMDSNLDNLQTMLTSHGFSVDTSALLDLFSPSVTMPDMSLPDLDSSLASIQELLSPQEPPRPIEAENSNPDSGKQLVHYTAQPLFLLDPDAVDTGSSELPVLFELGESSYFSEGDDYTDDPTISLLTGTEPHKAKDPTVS

[3] = C. albicans growth with fluconazole, confirmation, fluorescence, retest (AID 2467); format: functional, cell-based
[4] = NIH-3T3 fibroblast cytotoxicity, dose response, cytotoxicity control, cell-based, fluorescence, Alamar Blue, secondary assay (AID 2327); format: functional;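 note: NIH-3T3 mouse fibroblasts cultured with fluconazole at 8 µg/mL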
[5] = cytotoxicity in KRAS-transformed pancreatic duct cells, primary screen, cell-based, fluorescence, HTS (AID 431); format: functional; settings: Homo sapiens;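 note: cell line used: HPDE-C7K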
Estrogen receptor beta = Estrogen receptor beta (Homo sapiens, UniProt Q92731); assay: ERβ–SRC-3 coactivator interaction inhibitors, confirmation, orthogonal assay, biochemical, ELISA, streptavidin-HRP readout (AID 1060)
Sequence of Estrogen receptor beta (Q92731 whole entry): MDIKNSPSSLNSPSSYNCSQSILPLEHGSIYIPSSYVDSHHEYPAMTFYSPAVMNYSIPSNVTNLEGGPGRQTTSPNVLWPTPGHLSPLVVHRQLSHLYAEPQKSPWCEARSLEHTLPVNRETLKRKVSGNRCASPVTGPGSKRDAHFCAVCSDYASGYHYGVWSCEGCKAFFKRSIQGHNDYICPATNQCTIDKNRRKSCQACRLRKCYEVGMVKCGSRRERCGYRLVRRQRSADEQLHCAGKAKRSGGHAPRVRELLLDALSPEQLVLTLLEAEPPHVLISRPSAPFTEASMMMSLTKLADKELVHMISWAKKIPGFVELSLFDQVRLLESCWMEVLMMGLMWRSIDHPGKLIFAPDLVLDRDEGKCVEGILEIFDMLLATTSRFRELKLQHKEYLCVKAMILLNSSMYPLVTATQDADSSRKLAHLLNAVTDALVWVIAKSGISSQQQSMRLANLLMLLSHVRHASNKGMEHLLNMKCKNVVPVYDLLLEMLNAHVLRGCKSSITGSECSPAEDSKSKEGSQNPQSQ

[6] = cytotoxicity in HPDE-C7 cells, cell-based, fluorescence, HTS (AID 430); format: functional; settings: Homo sapiens
[7] = target: Serine/threonine-protein phosphatase PP1-alpha catalytic subunit (Homo sapiens, UniProt P62136); assay: PP1 phosphatase inhibitors, dose response, biochemical, fluorescence (AID 2403);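 note: phosphatase turnover of OMFP into fluorescent 3-O-methylfluorescein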
[8] = target: Serine/threonine-protein phosphatase (Homo sapiens, UniProt Q9BPW0); assay: Counterscreen for inhibitors of PP1: fluorescence-based biochemical high throughput dose response assay to identify inhibitors of Protein Phosphatase 5 (PP5). [Related pubchem assays: 2034 (Summary (PP5 inhibitors)), 1987 (PP5 inhibitors in singlate), 2235 (PP1 inhibitors in singlate)]
Sequence of Serine/threonine-protein phosphatase (Q9BPW0 whole entry): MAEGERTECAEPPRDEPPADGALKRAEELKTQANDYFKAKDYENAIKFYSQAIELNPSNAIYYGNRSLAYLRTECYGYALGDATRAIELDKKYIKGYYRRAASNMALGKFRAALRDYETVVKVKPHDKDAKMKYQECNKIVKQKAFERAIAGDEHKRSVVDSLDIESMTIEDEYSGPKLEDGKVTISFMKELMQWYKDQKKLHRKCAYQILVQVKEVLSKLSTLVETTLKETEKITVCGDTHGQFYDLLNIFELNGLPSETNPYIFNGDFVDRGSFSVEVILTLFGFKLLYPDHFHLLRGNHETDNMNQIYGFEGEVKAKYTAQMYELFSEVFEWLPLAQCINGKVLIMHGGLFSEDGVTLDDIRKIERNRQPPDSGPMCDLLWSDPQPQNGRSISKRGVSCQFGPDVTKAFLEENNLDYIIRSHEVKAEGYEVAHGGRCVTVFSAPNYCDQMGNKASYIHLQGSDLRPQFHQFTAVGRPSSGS

[9] = inhibitors of SNCA 5'UTR-driven translation, confirmation, luminescence, H4 neuroglioblastoma cells, dose confirmation (AID 2454); format: functional, cell-based;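 note: H4 neuroglioblastoma cells carrying an alpha-synuclein 5'UTR luciferase reporter; potency for inhibition of the luciferase signal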
Estrogen receptor = target: T3, Estrogen receptor (Homo sapiens, UniProt P03372);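 note: potency for inhibiting coactivator peptide recruitment to the receptor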
T3 sequence (P03372 whole entry): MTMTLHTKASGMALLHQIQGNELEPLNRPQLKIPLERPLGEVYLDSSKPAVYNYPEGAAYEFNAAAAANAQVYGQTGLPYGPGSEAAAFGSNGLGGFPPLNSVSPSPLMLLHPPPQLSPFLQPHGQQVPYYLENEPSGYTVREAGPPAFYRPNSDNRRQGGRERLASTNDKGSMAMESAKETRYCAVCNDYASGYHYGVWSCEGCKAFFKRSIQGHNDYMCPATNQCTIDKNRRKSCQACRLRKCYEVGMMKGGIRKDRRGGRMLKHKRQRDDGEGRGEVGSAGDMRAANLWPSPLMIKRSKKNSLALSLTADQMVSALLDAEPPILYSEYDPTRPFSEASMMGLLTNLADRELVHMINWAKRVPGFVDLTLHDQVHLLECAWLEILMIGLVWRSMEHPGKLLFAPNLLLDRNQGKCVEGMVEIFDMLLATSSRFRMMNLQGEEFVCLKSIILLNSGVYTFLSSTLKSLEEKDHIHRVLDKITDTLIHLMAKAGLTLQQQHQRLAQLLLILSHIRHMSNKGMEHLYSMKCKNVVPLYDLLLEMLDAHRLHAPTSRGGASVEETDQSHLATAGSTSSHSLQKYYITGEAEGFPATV

[10] = tested on: Streptococcus sp. 'group A'; assay: growth inhibition of control SK(-) GAS strain, dose response, counter-screen for streptokinase expression inhibitor project, luminescence, kanamycin, BacTiterGlo, confirmation (AID 1900); format: functional, organism-based
[11] = inhibitors of firefly luciferase expression or activity, dose response, H4 neuroglioma cells, luminescence (AID 1990); format: functional, cell-based
cells = format: functional, cell-based
Streptokinase A = target: T4, Streptokinase A (Streptococcus pyogenes serotype M1, UniProt P10520); assay: S. pyogenes streptokinase expression inhibitors, potency, dose response, plasminogen activation absorbance, OD405 (AID 1914); format: functional, Streptococcus pyogenes M1 GAS;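 note: secreted streptokinase activity via plasminogen activation per viability signal from cell pellet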
T4 sequence (P10520 whole entry): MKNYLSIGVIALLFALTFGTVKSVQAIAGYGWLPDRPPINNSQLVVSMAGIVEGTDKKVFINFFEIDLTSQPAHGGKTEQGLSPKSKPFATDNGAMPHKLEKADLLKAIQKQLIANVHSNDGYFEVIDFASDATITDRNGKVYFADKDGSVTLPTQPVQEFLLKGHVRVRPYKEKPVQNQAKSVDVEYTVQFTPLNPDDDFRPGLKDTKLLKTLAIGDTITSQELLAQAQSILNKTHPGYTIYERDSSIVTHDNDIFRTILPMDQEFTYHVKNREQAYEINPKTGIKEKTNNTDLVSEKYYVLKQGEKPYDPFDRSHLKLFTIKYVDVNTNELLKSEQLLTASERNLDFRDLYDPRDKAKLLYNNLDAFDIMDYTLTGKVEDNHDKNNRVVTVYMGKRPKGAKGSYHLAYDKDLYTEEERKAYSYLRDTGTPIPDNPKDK

Streptococcus = assay: Group A Streptococcus viability loss, dose response, counter-screen for streptokinase expression inhibitor project, luminescence, BacTiterGlo (AID 1915); format: functional, organism-based;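 note: potency for reduction of bacterial viability or growth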
[12] = luciferase reporter signal reduction – luminescence, H4-C neuroglioblastoma cells, dose response (AID 2458); format: functional, cell-based;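 note: H4 neuroglioblastoma cells stably carrying a luciferase reporter gene fusion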
[13] = inhibitors of SNCA 5'UTR-driven reporter translation, confirmation, H4 neuroglioma cells, luminescence (AID 1988); format: functional, cell-based
Wee1-like protein kinase = Wee1-like protein kinase (Homo sapiens, UniProt P30291); assay: Dose Response Cell-based Assay for Inhibitors of Wee1 Degradation. [Related pubchem assays: 1410, 1321 ]; format: functional
[14] = target: G2/mitotic-specific cyclin-B1 (Homo sapiens, UniProt P14635); assay: Counterscreen assay for inhibitors of Wee1 degradation: dose response cell-based assay to identify inhibitors of cyclin B degradation. [Related pubchem assays: 1410, 1321 ]; format: functional
Sequence of G2/mitotic-specific cyclin-B1 (P14635 whole entry): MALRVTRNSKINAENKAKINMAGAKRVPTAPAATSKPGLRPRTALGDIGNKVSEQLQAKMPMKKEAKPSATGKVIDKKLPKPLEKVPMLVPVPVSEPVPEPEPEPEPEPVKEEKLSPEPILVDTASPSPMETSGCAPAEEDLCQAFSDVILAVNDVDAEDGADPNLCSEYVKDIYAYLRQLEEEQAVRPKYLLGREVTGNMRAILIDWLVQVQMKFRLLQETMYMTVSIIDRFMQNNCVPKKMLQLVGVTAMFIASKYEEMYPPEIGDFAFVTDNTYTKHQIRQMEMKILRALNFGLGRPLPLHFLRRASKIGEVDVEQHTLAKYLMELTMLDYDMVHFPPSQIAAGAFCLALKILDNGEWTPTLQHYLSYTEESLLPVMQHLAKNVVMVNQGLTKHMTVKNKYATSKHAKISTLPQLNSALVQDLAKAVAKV

Bcl-2-like protein 1 = Bcl-2-like protein 1 (Homo sapiens, UniProt Q07817); assay: BCL-XL inhibitors, dose response, selectivity assay for MCL1 inhibitor project, biochemical, fluorescence polarization, 1536-well (AID 2218)
Hexokinase HKDC1 = Hexokinase HKDC1 (Homo sapiens, UniProt Q2TB90); assay: HKDC1 hexokinase inhibitors, dose response, biochemical, W721R variant (AID 504729); format: functional
Sequence of Hexokinase HKDC1 (Q2TB90 whole entry): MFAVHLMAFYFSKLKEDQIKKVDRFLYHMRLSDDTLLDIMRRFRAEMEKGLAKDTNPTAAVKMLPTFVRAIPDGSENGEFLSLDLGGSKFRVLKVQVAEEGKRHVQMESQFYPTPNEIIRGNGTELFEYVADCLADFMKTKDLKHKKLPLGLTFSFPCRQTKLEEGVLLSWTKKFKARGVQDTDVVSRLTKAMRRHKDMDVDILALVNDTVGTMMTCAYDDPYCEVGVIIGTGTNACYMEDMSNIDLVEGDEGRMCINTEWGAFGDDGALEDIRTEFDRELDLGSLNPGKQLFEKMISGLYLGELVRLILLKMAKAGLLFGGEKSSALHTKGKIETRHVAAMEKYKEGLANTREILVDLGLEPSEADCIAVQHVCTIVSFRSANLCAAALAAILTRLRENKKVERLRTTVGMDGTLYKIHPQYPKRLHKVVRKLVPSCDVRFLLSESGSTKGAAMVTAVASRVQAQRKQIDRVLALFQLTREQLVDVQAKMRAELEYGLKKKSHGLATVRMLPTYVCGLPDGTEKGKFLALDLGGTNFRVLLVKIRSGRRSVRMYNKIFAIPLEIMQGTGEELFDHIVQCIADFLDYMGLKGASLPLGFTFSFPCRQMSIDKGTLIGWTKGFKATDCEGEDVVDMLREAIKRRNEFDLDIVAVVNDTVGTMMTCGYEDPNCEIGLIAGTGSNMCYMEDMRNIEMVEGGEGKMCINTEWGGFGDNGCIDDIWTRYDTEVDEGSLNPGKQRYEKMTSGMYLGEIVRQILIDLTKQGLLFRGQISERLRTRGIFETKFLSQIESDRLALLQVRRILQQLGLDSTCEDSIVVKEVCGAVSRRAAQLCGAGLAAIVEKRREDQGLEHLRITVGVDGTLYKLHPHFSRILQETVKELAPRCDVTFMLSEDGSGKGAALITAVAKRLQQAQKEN

[15] = target: 26S proteasome non-ATPase regulatory subunit 14 (Homo sapiens, UniProt O00487); assay: inhibition of proteasome subunit RPN11 – biochemical, fluorescence polarization, uHTS hits, confirmation (AID 602368); format: functional
Sequence of 26S proteasome non-ATPase regulatory subunit 14 (O00487 whole entry): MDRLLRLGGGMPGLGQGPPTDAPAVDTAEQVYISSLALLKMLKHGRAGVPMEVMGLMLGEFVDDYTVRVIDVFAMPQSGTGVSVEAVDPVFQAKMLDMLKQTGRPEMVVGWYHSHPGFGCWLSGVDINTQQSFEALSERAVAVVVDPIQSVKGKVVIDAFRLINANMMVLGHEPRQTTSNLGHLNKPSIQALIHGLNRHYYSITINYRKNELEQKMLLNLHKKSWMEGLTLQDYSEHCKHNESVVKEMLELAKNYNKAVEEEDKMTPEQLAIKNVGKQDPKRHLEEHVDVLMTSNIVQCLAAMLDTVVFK

[16] = target: Induced myeloid leukemia cell differentiation protein Mcl-1 (Homo sapiens, UniProt Q07820); assay: MCL1-BIM BH3 interaction inhibitors, dose response, biochemical, fluorescence polarization, BIM-BH3 peptide, 1536-well (AID 2217)
[17] = target: DNA (cytosine-5)-methyltransferase 1 (Homo sapiens, UniProt P26358); assay: DNMT1 methyltransferase inhibitors, confirmation, biochemical, fluorescent molecular beacon (AID 602386); format: functional
Sequence of DNA (cytosine-5)-methyltransferase 1 (P26358 whole entry): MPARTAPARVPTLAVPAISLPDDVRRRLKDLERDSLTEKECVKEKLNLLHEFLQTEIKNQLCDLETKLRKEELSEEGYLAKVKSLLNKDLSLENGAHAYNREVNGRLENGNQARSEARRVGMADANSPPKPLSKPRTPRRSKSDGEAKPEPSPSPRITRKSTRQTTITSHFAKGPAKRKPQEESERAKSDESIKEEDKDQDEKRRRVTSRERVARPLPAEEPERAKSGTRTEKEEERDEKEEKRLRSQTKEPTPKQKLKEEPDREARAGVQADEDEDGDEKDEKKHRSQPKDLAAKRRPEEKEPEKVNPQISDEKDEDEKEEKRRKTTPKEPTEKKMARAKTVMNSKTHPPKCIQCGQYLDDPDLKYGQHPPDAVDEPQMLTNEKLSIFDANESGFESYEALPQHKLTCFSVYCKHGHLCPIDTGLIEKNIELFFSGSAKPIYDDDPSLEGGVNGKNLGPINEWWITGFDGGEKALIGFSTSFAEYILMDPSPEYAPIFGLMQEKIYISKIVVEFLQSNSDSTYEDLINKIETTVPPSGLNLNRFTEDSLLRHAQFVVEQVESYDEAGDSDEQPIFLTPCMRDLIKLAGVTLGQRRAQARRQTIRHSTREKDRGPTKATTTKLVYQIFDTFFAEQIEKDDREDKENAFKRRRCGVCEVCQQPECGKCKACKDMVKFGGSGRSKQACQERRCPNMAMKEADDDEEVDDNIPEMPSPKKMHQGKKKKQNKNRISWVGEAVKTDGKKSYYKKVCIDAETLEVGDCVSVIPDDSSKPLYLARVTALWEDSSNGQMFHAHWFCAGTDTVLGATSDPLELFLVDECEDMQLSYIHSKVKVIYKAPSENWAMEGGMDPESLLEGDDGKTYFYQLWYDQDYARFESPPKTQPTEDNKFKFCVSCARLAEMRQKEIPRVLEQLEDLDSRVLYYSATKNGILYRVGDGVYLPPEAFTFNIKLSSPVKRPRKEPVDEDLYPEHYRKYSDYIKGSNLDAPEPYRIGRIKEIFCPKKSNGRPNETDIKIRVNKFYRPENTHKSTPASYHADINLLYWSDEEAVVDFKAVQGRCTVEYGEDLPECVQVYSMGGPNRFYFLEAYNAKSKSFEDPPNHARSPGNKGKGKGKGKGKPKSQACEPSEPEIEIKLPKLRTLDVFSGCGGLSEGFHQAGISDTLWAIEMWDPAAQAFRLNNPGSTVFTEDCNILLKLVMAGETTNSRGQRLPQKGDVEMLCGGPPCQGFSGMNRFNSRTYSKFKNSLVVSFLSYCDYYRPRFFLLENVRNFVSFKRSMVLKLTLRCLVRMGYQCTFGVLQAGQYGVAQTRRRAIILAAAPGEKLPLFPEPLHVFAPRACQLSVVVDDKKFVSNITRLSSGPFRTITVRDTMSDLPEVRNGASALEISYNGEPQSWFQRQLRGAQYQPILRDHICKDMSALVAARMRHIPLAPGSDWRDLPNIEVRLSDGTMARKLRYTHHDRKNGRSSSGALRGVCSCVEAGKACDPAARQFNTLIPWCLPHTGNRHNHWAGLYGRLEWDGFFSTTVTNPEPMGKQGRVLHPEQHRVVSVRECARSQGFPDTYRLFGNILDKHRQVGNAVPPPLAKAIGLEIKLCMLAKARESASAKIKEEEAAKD

Prothrombin = Prothrombin (Bos taurus, UniProt P00735); assay: thrombin inhibition, dose response, biochemical, fluorescence polarization, uHTS hits (AID 602369); format: functional
[18] = target: 72 kDa type IV collagenase (Homo sapiens, UniProt P08253); assay: Dose Response validation of uHTS RPN11 inhibitor hits using a MMP-2 Fluorescence assay.; format: functional
Sequence of 72 kDa type IV collagenase (P08253 whole entry): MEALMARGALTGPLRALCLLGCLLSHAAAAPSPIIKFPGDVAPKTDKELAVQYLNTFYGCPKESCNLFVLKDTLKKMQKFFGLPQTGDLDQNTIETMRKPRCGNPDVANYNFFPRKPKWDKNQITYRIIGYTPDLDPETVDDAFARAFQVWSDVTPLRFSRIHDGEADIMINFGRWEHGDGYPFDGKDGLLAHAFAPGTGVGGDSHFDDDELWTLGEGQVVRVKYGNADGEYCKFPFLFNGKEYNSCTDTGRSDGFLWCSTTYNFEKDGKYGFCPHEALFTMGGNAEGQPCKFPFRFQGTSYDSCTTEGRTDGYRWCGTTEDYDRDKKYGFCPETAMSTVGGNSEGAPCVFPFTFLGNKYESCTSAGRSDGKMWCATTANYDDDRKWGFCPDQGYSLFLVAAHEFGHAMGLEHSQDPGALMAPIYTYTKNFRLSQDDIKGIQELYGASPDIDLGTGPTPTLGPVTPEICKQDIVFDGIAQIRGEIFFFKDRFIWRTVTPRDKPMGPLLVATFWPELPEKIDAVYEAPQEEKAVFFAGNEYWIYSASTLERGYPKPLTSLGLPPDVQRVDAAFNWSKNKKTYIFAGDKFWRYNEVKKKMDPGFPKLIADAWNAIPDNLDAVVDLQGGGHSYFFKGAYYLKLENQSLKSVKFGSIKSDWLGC

Oc1c(C(c2ccccn2)N2CCOCC2)ccc2cccnc12 (configuration not stated)
IC50 [1]: > 50 µM (not active) | EC50 [2]: 74.8 µM (active) | EC50 [3]: > 38 µM (not active) | EC50 [4]: > 150 µM (inactive) | EC50 [5]: > 20 µM (not active) | IC50 (Estrogen receptor beta): > 50 µM (not active) | EC50 [6]: > 20 µM (not active) | IC50 [7]: 2.36 µM (active) | IC50 [8]: > 67 µM (not active)

CN1Cc2cc(C(=O)c3cc(Cl)cc(CSc4ncccn4)c3O)cnc2NC1=O
EC50 [9]: 0.799 µM (active) | IC50 (Estrogen receptor): > 50 µM (not active) | EC50 [10]: 13.8 µM (active) | EC50 [11]: < 0.1 µM (active) | EC50 (cells): 0.812 µM (active) | EC50 (Streptokinase A): > 150 µM (not active) | EC50 (Streptococcus): > 150 µM (not active) | EC50 [12]: 0.449 µM (active) | EC50 [13]: < 0.1 µM (active)

CCN(CC)c1ccc(/C=N/NC(=O)c2ccco2)cc1
EC50 (Wee1-like protein kinase): > 49.7 µM (not active) | EC50 [14]: > 49.7 µM (not active)

N#Cc1c(SCC(=O)Nc2nc3ccc(Br)cc3s2)sc2c(O)cc(=O)[nH]c12
IC50 (Bcl-2-like protein 1): > 109 µM (not active) | IC50 (Hexokinase HKDC1): 24.8 µM (inactive) | IC50 [15]: 12.8 µM (active) | IC50 [16]: > 109 µM (not active) | IC50 [17]: 8.28 µM (active) | IC50 (Prothrombin): 71.2 µM (active) | IC50 [18]: 3.94 µM (active)
